Results: ChEMBL document CHEMBL1212896, “Discovery of novel cyanodihydropyridines as potent mineralocorticoid receptor antagonists” (J Med Chem, 2010)

Tests used:
[1] = target: T1, Mineralocorticoid receptor (Homo sapiens, UniProt P08235)
T1 sequence (P08235 whole entry): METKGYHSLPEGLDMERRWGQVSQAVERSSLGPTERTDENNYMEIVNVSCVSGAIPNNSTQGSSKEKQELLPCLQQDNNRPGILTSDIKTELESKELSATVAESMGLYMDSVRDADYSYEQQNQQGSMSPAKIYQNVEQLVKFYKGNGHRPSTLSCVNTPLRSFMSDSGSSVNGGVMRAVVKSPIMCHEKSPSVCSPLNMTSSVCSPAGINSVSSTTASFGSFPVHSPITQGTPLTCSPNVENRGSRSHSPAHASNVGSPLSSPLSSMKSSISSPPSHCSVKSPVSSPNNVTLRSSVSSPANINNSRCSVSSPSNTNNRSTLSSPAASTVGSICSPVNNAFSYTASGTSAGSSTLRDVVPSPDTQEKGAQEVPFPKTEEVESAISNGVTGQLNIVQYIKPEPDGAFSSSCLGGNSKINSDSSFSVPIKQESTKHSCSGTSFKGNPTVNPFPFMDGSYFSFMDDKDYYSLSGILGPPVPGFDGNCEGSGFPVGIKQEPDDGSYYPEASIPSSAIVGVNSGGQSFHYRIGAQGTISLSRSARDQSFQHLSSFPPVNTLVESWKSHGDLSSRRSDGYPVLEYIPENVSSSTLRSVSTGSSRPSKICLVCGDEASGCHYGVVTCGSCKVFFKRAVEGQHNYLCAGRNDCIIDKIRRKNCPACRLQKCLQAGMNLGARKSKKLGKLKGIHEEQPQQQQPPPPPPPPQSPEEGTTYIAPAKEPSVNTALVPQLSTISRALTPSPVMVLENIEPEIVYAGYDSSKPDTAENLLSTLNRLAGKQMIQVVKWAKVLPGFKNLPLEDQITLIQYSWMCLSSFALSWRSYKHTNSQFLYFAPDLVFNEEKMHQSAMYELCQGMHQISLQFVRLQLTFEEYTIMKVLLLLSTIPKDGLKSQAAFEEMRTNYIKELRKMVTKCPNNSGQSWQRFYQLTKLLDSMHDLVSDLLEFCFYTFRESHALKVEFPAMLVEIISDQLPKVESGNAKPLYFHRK
Description: Antagonist activity at mineralocorticoid receptor LBD expressed in human HUH7 cells coexpressing GAL4 by luciferase reporter gene assay

Cytochrome P450 3A4 = Cytochrome P450 3A4 (Homo sapiens, UniProt P08684); assay: Inhibition of CYP3A4; format: ADME
Liver microsomes [2] = assay: Metabolic stability in rat liver microsomes assessed as compound remaining; format: ADME, Microsome; note: time not given here
Cytochrome P450 2D6 = Cytochrome P450 2D6 (Homo sapiens, UniProt P10635); assay: Inhibition of CYP2D6; format: ADME
Liver microsomes [3] = assay: Metabolic stability in human liver microsomes assessed as compound remaining; format: ADME, Microsome; note: time not given here
Progesterone receptor = target: T2, Progesterone receptor (Homo sapiens, UniProt P06401); assay: Antagonist activity at progesterone receptor LBD expressed in human HUH7 cells coexpressing GAL4 by luciferase reporter gene assay; format: functional, cell-based, Huh-7
T2 sequence (P06401 whole entry): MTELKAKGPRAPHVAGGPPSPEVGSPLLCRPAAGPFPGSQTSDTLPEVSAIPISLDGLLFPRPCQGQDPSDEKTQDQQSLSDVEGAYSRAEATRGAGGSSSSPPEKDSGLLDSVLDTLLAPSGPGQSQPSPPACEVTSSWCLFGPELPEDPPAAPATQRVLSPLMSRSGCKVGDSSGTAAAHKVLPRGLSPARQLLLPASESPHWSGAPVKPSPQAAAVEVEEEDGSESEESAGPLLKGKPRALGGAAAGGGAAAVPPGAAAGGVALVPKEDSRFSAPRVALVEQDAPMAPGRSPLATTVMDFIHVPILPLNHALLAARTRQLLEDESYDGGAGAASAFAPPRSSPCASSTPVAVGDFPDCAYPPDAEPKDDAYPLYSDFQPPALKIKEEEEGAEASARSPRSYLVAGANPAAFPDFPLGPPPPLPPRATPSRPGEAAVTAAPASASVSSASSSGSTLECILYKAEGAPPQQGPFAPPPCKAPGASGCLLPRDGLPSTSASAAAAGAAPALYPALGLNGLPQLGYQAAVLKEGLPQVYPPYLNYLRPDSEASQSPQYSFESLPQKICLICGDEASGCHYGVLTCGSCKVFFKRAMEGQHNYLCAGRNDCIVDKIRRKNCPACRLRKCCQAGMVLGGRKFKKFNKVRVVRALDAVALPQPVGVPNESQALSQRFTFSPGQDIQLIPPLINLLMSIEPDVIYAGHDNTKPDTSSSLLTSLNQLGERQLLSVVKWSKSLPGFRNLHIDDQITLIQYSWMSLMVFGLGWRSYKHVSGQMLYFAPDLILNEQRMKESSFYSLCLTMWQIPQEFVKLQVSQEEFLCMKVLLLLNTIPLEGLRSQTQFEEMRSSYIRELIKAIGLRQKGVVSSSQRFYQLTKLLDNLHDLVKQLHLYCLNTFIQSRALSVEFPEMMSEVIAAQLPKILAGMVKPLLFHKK

Glucocorticoid receptor = target: T3, Glucocorticoid receptor (Homo sapiens, UniProt P04150); assay: Antagonist activity at glucocorticoid receptor LBD expressed in human HUH7 cells coexpressing GAL4 by luciferase reporter gene assay; format: functional, cell-based, Huh-7
T3 sequence (P04150 whole entry): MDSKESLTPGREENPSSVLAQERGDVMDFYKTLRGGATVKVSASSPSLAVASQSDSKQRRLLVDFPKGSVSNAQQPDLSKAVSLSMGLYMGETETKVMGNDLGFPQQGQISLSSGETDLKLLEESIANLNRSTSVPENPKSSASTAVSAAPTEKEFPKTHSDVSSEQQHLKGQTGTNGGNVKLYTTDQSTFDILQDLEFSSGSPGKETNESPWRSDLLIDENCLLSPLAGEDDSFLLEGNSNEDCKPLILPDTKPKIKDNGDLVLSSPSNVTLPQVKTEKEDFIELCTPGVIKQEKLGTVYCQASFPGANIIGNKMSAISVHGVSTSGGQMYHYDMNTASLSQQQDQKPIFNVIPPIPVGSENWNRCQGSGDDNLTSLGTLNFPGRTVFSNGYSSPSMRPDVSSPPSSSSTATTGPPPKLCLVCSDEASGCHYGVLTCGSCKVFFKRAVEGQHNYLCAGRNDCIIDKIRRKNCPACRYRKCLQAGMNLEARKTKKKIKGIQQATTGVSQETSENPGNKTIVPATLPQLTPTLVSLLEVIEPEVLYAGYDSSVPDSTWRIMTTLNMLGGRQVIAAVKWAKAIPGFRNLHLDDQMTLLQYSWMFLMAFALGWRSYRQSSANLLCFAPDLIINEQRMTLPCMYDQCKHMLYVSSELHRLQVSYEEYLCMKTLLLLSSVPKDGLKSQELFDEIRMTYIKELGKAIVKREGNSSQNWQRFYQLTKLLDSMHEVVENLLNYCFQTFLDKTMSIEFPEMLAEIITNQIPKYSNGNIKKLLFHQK

Cytochrome P450 2C9 = Cytochrome P450 2C9 (Homo sapiens, UniProt P11712); assay: Inhibition of CYP2C9; format: ADME
Sequence of Cytochrome P450 2C9 (P11712 whole entry): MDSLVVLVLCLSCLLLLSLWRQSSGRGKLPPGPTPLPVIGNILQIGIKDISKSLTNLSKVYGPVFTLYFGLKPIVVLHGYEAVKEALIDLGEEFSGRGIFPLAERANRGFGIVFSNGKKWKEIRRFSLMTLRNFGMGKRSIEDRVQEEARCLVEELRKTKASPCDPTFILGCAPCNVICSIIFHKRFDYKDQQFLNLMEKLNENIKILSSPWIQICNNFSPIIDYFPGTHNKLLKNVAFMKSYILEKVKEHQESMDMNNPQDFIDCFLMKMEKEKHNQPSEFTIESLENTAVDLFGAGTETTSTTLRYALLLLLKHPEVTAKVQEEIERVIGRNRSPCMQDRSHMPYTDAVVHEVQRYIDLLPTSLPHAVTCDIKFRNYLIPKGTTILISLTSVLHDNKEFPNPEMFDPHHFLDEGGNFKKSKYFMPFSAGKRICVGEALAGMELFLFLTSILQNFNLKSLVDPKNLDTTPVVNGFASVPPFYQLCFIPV

Sequence of Cytochrome P450 2D6 (P10635 whole entry): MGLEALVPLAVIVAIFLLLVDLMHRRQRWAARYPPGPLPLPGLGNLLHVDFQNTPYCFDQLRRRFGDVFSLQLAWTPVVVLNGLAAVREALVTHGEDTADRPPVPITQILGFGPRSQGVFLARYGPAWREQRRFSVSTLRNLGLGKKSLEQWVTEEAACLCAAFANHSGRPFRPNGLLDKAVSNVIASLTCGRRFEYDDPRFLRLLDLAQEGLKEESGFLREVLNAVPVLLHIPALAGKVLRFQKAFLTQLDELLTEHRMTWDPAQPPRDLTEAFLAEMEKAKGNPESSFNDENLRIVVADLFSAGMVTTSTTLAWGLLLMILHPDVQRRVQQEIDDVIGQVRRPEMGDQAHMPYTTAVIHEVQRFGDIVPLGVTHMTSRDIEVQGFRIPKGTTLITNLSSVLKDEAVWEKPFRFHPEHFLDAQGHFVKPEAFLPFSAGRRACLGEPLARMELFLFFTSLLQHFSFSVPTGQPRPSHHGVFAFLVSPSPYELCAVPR
Sequence of Cytochrome P450 3A4 (P08684 whole entry): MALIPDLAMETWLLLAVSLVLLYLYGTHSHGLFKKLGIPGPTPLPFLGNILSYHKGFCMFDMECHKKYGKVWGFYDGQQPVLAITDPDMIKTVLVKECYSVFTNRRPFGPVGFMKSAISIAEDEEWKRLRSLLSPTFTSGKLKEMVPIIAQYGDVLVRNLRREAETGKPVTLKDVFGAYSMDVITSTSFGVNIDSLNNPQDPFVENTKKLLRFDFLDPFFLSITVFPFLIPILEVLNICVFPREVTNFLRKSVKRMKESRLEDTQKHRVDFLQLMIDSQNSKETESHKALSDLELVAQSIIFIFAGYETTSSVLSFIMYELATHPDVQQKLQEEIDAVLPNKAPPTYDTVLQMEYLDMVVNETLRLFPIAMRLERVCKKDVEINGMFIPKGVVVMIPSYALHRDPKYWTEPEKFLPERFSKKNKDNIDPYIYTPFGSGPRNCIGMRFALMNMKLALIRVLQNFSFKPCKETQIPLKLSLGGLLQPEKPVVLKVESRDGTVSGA

Structure (SMILES) | IC50 [1] | IC50 (Cytochrome P450 3A4) | Stability (Liver microsomes [2]) | IC50 (Cytochrome P450 2D6) | Stability (Liver microsomes [3]) | IC50 (Progesterone receptor) | IC50 (Glucocorticoid receptor) | IC50 (Cytochrome P450 2C9) | inhibition (INH) (Cytochrome P450 3A4) | inhibition (INH) (Cytochrome P450 2D6) | inhibition (INH) (Cytochrome P450 2C9)
COC(=O)C1=C(Cn2cnnn2)NC(C)=C(C#N)C1c1ccc(F)cc1Cl (stereo not given) | 64 nM | 1200 nM | 60% | > 10000 nM | 3% | > 10000 nM | 1300 nM | 1900 nM | – | – | –
CCCC1=C(C(=O)OC)C(c2ccccc2Cl)C(C#N)=C(C)N1 (stereo not given) | 64 nM | – | 13% | – | 36% | 200 nM | 1600 nM | – | 71% | 19% | 83%
COC(=O)C1=C(C)NC(C)=C(C#N)C1c1ccc(F)cc1Cl (stereo not given) | 92 nM | – | 14% | – | 37% | 900 nM | 5100 nM | – | 40% | 0% | 44%
COC(=O)C1=C(Cn2ccnc2)NC(C)=C(C#N)C1c1ccc(F)cc1Cl (stereo not given) | 9 nM | 200 nM | 64% | > 10000 nM | 8% | > 10000 nM | 2200 nM | 1000 nM | – | – | –
COC(=O)C1=C(Cn2cncn2)NC(C)=C(C#N)C1c1ccc(F)cc1Cl (stereo not given) | 123 nM | 800 nM | 34% | > 10000 nM | 9% | 7000 nM | 2900 nM | 100 nM | – | – | –
